Reference: patent US12371454B2, “Cyclic peptide compound having Kras inhibitory action” (priority 2019, dated 2025)
Starred links: 1 amine or outer side, 2 acyl side, 3 side chain; linkers in the order of their positions; H or OH if unused. Positions of bridges follow the written chain, without caps; N, C: chain ends. Non-standard residues stand in square brackets, D forms with d. Residues, ends and D or L forms follow the SMILES beside them. *: point of attachment. hPhe(3-Cl-4-CF3) = N[C@@H](CCc1ccc(C(F)(F)F)c(Cl)c1)C(=O)O; NMePhe(4-CF3) = CN[C@@H](Cc1ccc(C(F)(F)F)cc1)C(=O)O; hPhe(4-CF3) = N[C@@H](CCc1ccc(C(F)(F)F)cc1)C(=O)O; NMeAbu(4,4,4-F3) = CN[C@@H](CC(F)(F)F)C(=O)O; NMePhe(3-Br) = CN[C@@H](Cc1cccc(Br)c1)C(=O)O; NMePhe(4-Cl) = CN[C@@H](Cc1ccc(Cl)cc1)C(=O)O; NMePhe(4-Me) = CN[C@@H](Cc1ccc(C)cc1)C(=O)O; X11 = CN([C@@H](CCc1cccnc1)C(=O)[*:2])[*:1]; Oic = O=C(O)[C@@H]1C[C@@H]2CCCC[C@@H]2N1; Phe(3-Cl) = N[C@@H](Cc1cccc(Cl)c1)C(=O)O; X79 = CC(C)CCOC[C@H](CC(=O)[*:2])N[*:1]; Pro(4,4-F2) = O=C(O)[C@@H]1CC(F)(F)CN1; NMeCha = CN[C@@H](CC1CCCCC1)C(=O)O; NMeAllylGly = C=CC[C@H](NC)C(=O)O; NMeChg = CN[C@H](C(=O)O)C1CCCCC1; NMeF = CN[C@@H](Cc1ccccc1)C(=O)O; NMeI = CC[C@H](C)[C@H](NC)C(=O)O; NMeD = CN[C@@H](CC(=O)O)C(=O)O; CH2CONHtBu = CC(C)(C)NC(=O)C*; NMeL = CN[C@@H](CC(C)C)C(=O)O; NMeV = CN[C@H](C(=O)O)C(C)C; d(β3hA) = C[C@@H](N)CC(=O)O; NMeS = CN[C@@H](CO)C(=O)O; Ac6c = NC1(C(=O)O)CCCCC1; Morpholide = C1CN(*)CCO1; NMeA = CN[C@@H](C)C(=O)O; Piperidide = C1CCN(*)CC1; Pyrrolidide = C1CCN(*)C1; Ac5c = NC1(C(=O)O)CCCC1; Aze = O=C(O)[C@@H]1CCN1; Abu = CC[C@H](N)C(=O)O; Isopentyl = CC(C)CC*; X76 = Clc1cccc(C*)c1; NEtG = CCNCC(=O)O; Sar = CNCC(=O)O

molecular target: T1, Kras and SOS1 (biotin-tagged human Kras loaded with GDP, His-tagged human SOS1) (Homo sapiens, UniProt P01116, G12D); assay: Protein-protein interaction inhibition between Kras and SOS1 (KrasGl2D-SOS PPI) using AlphaScreen; type: binding; conditions: not given
T1 construct: made in house; host or cells: E. coli (stated for Kras only)
T1 sequence (P01116 1-188 isoform P01116-2 G12D): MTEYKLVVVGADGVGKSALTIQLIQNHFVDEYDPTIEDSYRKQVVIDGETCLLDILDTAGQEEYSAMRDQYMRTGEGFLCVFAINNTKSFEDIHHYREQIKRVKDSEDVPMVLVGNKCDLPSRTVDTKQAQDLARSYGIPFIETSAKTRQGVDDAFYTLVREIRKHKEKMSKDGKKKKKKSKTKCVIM
Summary of the method: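 Donor beads (nickel) hold His-SOS1; acceptor beads (streptavidin) hold biotin-Kras bound to GDP. Signal measured at 520-620 nm following 680 nm excitation.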

Structure (SMILES) | IC50 [nM]
CC[C@H](C)[C@@H]1NC(=O)[C@H](CC(C)C)N(C)C(=O)C[C@@H](C(=O)N2CCCCC2)N(C)C(=O)[C@H](C2CCCCC2)N(C)C(=O)C2(CCCC2)NC(=O)[C@@H]2C[C@@H]3CCCC[C@@H]3N2C(=O)[C@H](CCc2ccc(C(F)(F)F)c(Cl)c2)NC(=O)CN(C)C(=O)[C@H](CC2CCCCC2)N(C)C(=O)CN(C)C(=O)CN(C)C1=O [Compound 297] ([NMeL]I[Sar][Sar][NMeCha][Sar][hPhe(3-Cl-4-CF3)][Oic][Ac5c][NMeChg][NMeD]-Piperidide; lactam N-11) | 49

same assay, conditions: AlphaScreen; biotin-tagged human Kras loaded with GDP, His-tagged human SOS1; read-out: KRAS G12D-SOS PPI IC50

Structure (SMILES) | IC50 [nM]
CC[C@H](C)[C@@H]1NC(=O)[C@H](CC(F)(F)F)N(C)C(=O)C[C@@H](C(=O)N2CCCC2)N(C)C(=O)[C@H](C2CCCCC2)N(C)C(=O)C2(CCCC2)NC(=O)[C@@H]2CCCN2C(=O)[C@H](CCc2ccc(C(F)(F)F)c(Cl)c2)NC(=O)CN(C)C(=O)[C@H](Cc2ccc(C(F)(F)F)cc2)N(C)C(=O)CN(C)C(=O)CN(C)C1=O [Compound 245, (3S,9S,18S,21S,25S,28S,34S)-3-[2-[3-chloro-4-(trifluoromethyl)phenyl]ethyl]-28-cyclohexyl-7,10,13,16,22,26,29-heptamethyl-18-[(1S)-1-methylpropyl]-25-(pyrrolidine-1-carbonyl)-21-(2,2,2-trifluoroethyl)-9-[[4-(trifluoromethyl)phenyl]methyl]spiro[1,4,7,10,13,16,19,22,26,29,32-undecazabicyclo[32.3.0]heptatriacontane-31,1′-cyclopentane]-2,5,8,11,14,17,20,23,27,30,33-undecone] ([NMeAbu(4,4,4-F3)]I[Sar][Sar][NMePhe(4-CF3)][Sar][hPhe(3-Cl-4-CF3)]P[Ac5c][NMeChg][NMeD]-Pyrrolidide; lactam N-11) | 0.37
CC[C@H](C)[C@@H]1NC(=O)[C@H](C)N(C)C(=O)C[C@@H](C(=O)N2CCCCC2)NC(=O)[C@H](CC(C)C)N(C)C(=O)[C@H](Cc2ccccc2)N(C)C(=O)[C@H](CC(C)C)NC(=O)[C@H](CCc2ccc(C(F)(F)F)c(Cl)c2)NC(=O)CN(C)C(=O)[C@H](Cc2ccc(Cl)cc2)N(C)C(=O)CN(C)C(=O)CN(C)C1=O [Compound 861] ([NMeA]I[Sar][Sar][NMePhe(4-Cl)][Sar][hPhe(3-Cl-4-CF3)]L[NMeF][NMeL]D-Piperidide; lactam N-11) | 4.5
CC[C@H](C)[C@@H]1NC(=O)[C@H](CC(C)C)N(C)C(=O)C[C@@H](C(=O)N(C)C)N(C)C(=O)[C@H]([C@@H](C)CC)N(C)C(=O)C2(CCCC2)NC(=O)[C@H](CCc2cccnc2)N(C)C(=O)[C@H](CCc2ccc(C(F)(F)F)c(Cl)c2)NC(=O)CN(C)C(=O)[C@H](Cc2ccc(C)cc2)N(C)C(=O)[C@@H]2CCN2C(=O)[C@H](C)N(C)C1=O [Compound 1886] ([NMeL]I[NMeA][Aze][NMePhe(4-Me)][Sar][hPhe(3-Cl-4-CF3)][X11][Ac5c][NMeI][NMeD]-NMe2; lactam N-11) | 0.93
CC[C@@H]1NC(=O)[C@H]([C@@H](C)CC)NC(=O)[C@H](CC(C)C)N(C)C(=O)C[C@@H](C)NC(=O)[C@H](C(C)C)N(C)C(=O)C2(CCCC2)NC(=O)[C@@H]2CCCN2C(=O)[C@H](CCc2ccc(C(F)(F)F)c(Cl)c2)NC(=O)CN(C)C(=O)[C@H](CC2CCCCC2)N(C)C(=O)CN(C)C1=O [Compound 1459] (cyclo([Abu][Sar][NMeCha][Sar][hPhe(3-Cl-4-CF3)]P[Ac5c][NMeV][d(β3hA)][NMeL]I)) | 290
CC[C@H](C)[C@@H]1NC(=O)[C@H](C)N(C)C(=O)C[C@@H](C(=O)N2CCCC2)NC(=O)[C@H](C(C)C)N(C)C(=O)[C@H](Cc2ccccc2)N(C)C(=O)[C@H](Cc2ccccc2)NC(=O)[C@H](Cc2cccc(Cl)c2)NC(=O)CN(C)C(=O)[C@H](Cc2ccc(Cl)cc2)N(C)C(=O)CN(C)C(=O)CN(CC)C1=O [Compound 224] ([NMeA]I[NEtG][Sar][NMePhe(4-Cl)][Sar][Phe(3-Cl)]F[NMeF][NMeV]D-Pyrrolidide; lactam N-11) | 230
CC[C@H](C)[C@@H]1NC(=O)[C@H](C)N(C)C(=O)C[C@@H](C(=O)N2CCCC2)NC(=O)[C@H](CC(C)C)NC(=O)[C@H](Cc2ccccc2)N(C)C(=O)[C@H](CC(C)C)NC(=O)[C@H](Cc2cccc(Cl)c2)NC(=O)CN(C)C(=O)[C@H](Cc2ccc(Cl)cc2)N(C)C(=O)CN(C)C(=O)CN(C)C1=O [Compound 499] ([NMeA]I[Sar][Sar][NMePhe(4-Cl)][Sar][Phe(3-Cl)]L[NMeF]LD-Pyrrolidide; lactam N-11) | 85
CC[C@H](C)[C@@H]1NC(=O)[C@H](C)N(C)C(=O)C[C@@H](C(=O)N(C)C)N(C)C(=O)[C@H]([C@@H](C)CC)N(C)C(=O)C2(CCCC2)NC(=O)[C@H](Cc2cccc(Br)c2)N(C)C(=O)[C@H](CCc2ccc(C(F)(F)F)c(Cl)c2)NC(=O)CN(C)C(=O)[C@H](Cc2ccc(C)cc2)N(C)C(=O)[C@@H]2CCN2C(=O)[C@H](C)N(C)C1=O [Compound 2000] ([NMeA]I[NMeA][Aze][NMePhe(4-Me)][Sar][hPhe(3-Cl-4-CF3)][NMePhe(3-Br)][Ac5c][NMeI][NMeD]-NMe2; lactam N-11) | 15
CC[C@H](C)[C@@H]1NC(=O)[C@H](CC(C)C)N(C)C(=O)C[C@@H](COCCC(C)C)NC(=O)[C@H](C(C)C)N(C)C(=O)C2(CCCC2)NC(=O)[C@@H]2CCCN2C(=O)[C@H](CCc2ccc(C(F)(F)F)c(Cl)c2)NC(=O)CN(C)C(=O)[C@H](CC2CCCCC2)N(C)C(=O)CN(C)C(=O)CN(C)C1=O [Compound 992] (cyclo([Ac5c][NMeV][X79][NMeL]I[Sar][Sar][NMeCha][Sar][hPhe(3-Cl-4-CF3)]P)) | 180
CC[C@H](C)[C@@H]1NC(=O)[C@H](CC(F)(F)F)N(C)C(=O)C[C@@H](C(=O)N2CCOCC2)N(C)C(=O)[C@H](C2CCCCC2)N(C)C(=O)C2(CCCC2)NC(=O)[C@@H]2CCCN2C(=O)[C@H](CCc2ccc(C(F)(F)F)c(Cl)c2)NC(=O)CN(C)C(=O)[C@H](Cc2ccc(C(F)(F)F)cc2)N(C)C(=O)CN(C)C(=O)CN(C)C1=O [Compound 981] ([NMeAbu(4,4,4-F3)]I[Sar][Sar][NMePhe(4-CF3)][Sar][hPhe(3-Cl-4-CF3)]P[Ac5c][NMeChg][NMeD]-Morpholide; lactam N-11) | 0.37
C=CC[C@H]1C(=O)NC2(CCCC2)C(=O)N(C)[C@@H](C(C)C)C(=O)N(C)[C@H](C(=O)N2CCCCC2)CC(=O)N(C)[C@@H](CC(C)C)C(=O)N[C@@H]([C@@H](C)CC)C(=O)N(C)[C@@H](C)C(=O)N2CC[C@H]2C(=O)N(C)[C@@H](CC2CCCCC2)C(=O)N(C)CC(=O)N[C@@H](CCc2ccc(C(F)(F)F)c(Cl)c2)C(=O)N1C [Compound 1447] ([NMeL]I[NMeA][Aze][NMeCha][Sar][hPhe(3-Cl-4-CF3)][NMeAllylGly][Ac5c][NMeV][NMeD]-Piperidide; lactam N-11) | 100
CC[C@H](C)[C@@H]1NC(=O)[C@H](C)N(C)C(=O)C[C@@H](C(=O)N2CCCCC2)N(C)C(=O)[C@H](C2CCCCC2)N(C)C(=O)C2(CCCC2)NC(=O)[C@@H]2CCCN2C(=O)[C@H](COCc2cccc(Cl)c2)NC(=O)CN(C)C(=O)[C@H](CC2CCCCC2)N(C)C(=O)CN(C)C(=O)CN(C)C1=O [Compound 2045] ([NMeA]I[Sar][Sar][NMeCha][Sar]S(X76)P[Ac5c][NMeChg][NMeD]-Piperidide; lactam N-11) | 15
CC[C@H](C)[C@@H]1NC(=O)[C@H](CC(C)C)N(C)C(=O)C[C@@H](C(=O)N(C)C)N(C)C(=O)[C@H]([C@@H](C)CC)N(C)C(=O)C2(CCCC2)NC(=O)[C@H](COCCC(C)C)N(C)C(=O)[C@H](CCc2ccc(C(F)(F)F)c(Cl)c2)NC(=O)CN(C)C(=O)[C@H](Cc2ccc(C)cc2)N(C)C(=O)[C@@H]2CCN2C(=O)[C@H](C)N(C)C1=O [Compound 27, (3S,6S,9S,13S,16S,22S,25S,31S,34S)-25-[2-[3-chloro-4-(trifluoromethyl)phenyl]ethyl]-9-isobutyl-22-(isopentyloxymethyl)-N,N,3,4,10,14,17,23,29,32-decamethyl-6,16-bis[(1S)-1-methylpropyl]-2,5,8,11,15,18,21,24,27,30,33-undecaoxo-31-(p-tolylmethyl)spiro[1,4,7,10,14,17,20,23,26,29,32-undecazabicyclo[32.2.0]hexatriacontane-19,1′-cyclopentane]-13-carboxamide] ([NMeL]I[NMeA][Aze][NMePhe(4-Me)][Sar][hPhe(3-Cl-4-CF3)][NMeS](Isopentyl)[Ac5c][NMeI][NMeD]-NMe2; lactam N-11) | 3.3
CC[C@H](C)[C@@H]1NC(=O)[C@H](C)N(C)C(=O)C[C@@H](C)NC(=O)[C@H](CC(C)C)N(C)C(=O)[C@H](Cc2ccccc2)N(C)C(=O)[C@@H]2CC(F)(F)CN2C(=O)[C@H](CCc2ccc(C(F)(F)F)cc2)NC(=O)CN(C)C(=O)[C@H](Cc2ccc(Cl)cc2)N(C)C(=O)CN(C)C(=O)CN(C)C1=O [Compound 870] (cyclo(I[Sar][Sar][NMePhe(4-Cl)][Sar][hPhe(4-CF3)][Pro(4,4-F2)][NMeF][NMeL][d(β3hA)][NMeA])) | 15
CC[C@H](C)[C@@H]1NC(=O)[C@H](C)N(C)C(=O)C[C@@H](C(=O)N2CCCC2)NC(=O)[C@H](CC(C)C)N(C)C(=O)[C@H](COCC(=O)NC(C)(C)C)NC(=O)[C@H](CC(C)C)NC(=O)[C@H](CCc2ccc(C(F)(F)F)cc2)NC(=O)CN(C)C(=O)[C@H](Cc2ccc(Cl)cc2)N(C)C(=O)CN(C)C(=O)CN(C)C1=O [Compound 53] ([NMeA]I[Sar][Sar][NMePhe(4-Cl)][Sar][hPhe(4-CF3)]LS(CH2CONHtBu)[NMeL]D-Pyrrolidide; lactam N-11) | 120
CC[C@H](C)[C@@H]1NC(=O)[C@H](CC(C)C)N(C)C(=O)C[C@@H](C(=O)N2CCCCC2)N(C)C(=O)[C@H](C2CCCCC2)N(C)C(=O)C2(CCCCC2)NC(=O)[C@@H]2CCCN2C(=O)[C@H](CCc2ccc(C(F)(F)F)c(Cl)c2)NC(=O)CN(C)C(=O)[C@H](CC2CCCCC2)N(C)C(=O)CN(C)C(=O)CN(C)C1=O [Compound 1644] ([NMeL]I[Sar][Sar][NMeCha][Sar][hPhe(3-Cl-4-CF3)]P[Ac6c][NMeChg][NMeD]-Piperidide; lactam N-11) | 3.1
